Data as given in PubChem BioAssay AID1259407 (Chemical Carcinogenesis Research Information System (CCRIS), 2018).
The source made the active and inactive calls. The rule behind the calls is not given here.

Test system: CCRIS mutagenicity, Ames/micronucleus/aberration tests
Test: CCRIS mutagenicity studies

C1N2CN3CN1CN(C2)C3
mutagenic call (End Point: In vitro chromosomal aberrations, Test System: Chinese hamster lung (CHL/IU) cells, Metabolic Activation: Rat, Liver, S9, Phenobarbital and 5,6-benzoflavone): inactive; negative
mutagenic call (Test System: AMES SALMONELLA TYPHIMURIUM, Strain/Indicator: TA97, Metabolic Activation: HAMSTER, LIVER, S-9, AROCLOR 1254 (5 OR 30%), Method: PREINCUBATION): inactive; negative
mutagenic call (Test System: AMES SALMONELLA TYPHIMURIUM, Strain/Indicator: TA97, Metabolic Activation: HAMSTER, LIVER, S-9, AROCLOR 1254 (10%), Method: PREINCUBATION): inactive; negative
mutagenic call (Test System: AMES SALMONELLA TYPHIMURIUM, Strain/Indicator: TA97, Metabolic Activation: NONE, Method: PREINCUBATION): inactive; negative
mutagenic call (Test System: AMES SALMONELLA TYPHIMURIUM, Strain/Indicator: TA97, Metabolic Activation: RAT, LIVER, S-9, AROCLOR 1254 (10%), Method: PREINCUBATION): inactive; negative
mutagenic call (Test System: AMES SALMONELLA TYPHIMURIUM, Strain/Indicator: TA97, Metabolic Activation: RAT, LIVER, S-9, AROCLOR 1254 (30%), Method: PREINCUBATION): inactive; negative
mutagenic call (Test System: AMES SALMONELLA TYPHIMURIUM, Strain/Indicator: TA98, Metabolic Activation: HAMSTER, LIVER, S-9, AROCLOR 1254 (10 OR 30%), Method: PREINCUBATION): inactive; negative
mutagenic call (Test System: AMES SALMONELLA TYPHIMURIUM, Strain/Indicator: TA98, Metabolic Activation: RAT, LIVER, S-9, AROCLOR 1254 (10 OR 30%), Method: PREINCUBATION): inactive; negative
mutagenic call (Test System: AMES SALMONELLA TYPHIMURIUM, Strain/Indicator: TA98, Metabolic Activation: RAT, LIVER, S-9, KC 500, Method: PREINCUBATION): active; positive
mutagenic call (Test System: AMES SALMONELLA TYPHIMURIUM, Strain/Indicator: TA98, Metabolic Activation: RAT, LIVER, S-9, PCB, Method: PREINCUBATION): inactive; negative
mutagenic call (Test System: AMES SALMONELLA TYPHIMURIUM, Strain/Indicator: TA100, Metabolic Activation: HAMSTER, LIVER, S-9, AROCLOR 1254 (10 OR 30%), Method: PREINCUBATION): inactive; negative
mutagenic call (Test System: AMES SALMONELLA TYPHIMURIUM, Strain/Indicator: TA100, Metabolic Activation: NONE, Method: PREINCUBATION): inactive; negative
mutagenic call (Test System: AMES SALMONELLA TYPHIMURIUM, Strain/Indicator: TA100, Metabolic Activation: RAT, LIVER, S-9, AROCLOR 1254 (10 OR 30%), Method: PREINCUBATION): inactive; negative
mutagenic call (Test System: AMES SALMONELLA TYPHIMURIUM, Strain/Indicator: TA100, Metabolic Activation: RAT, LIVER, S-9, KC 500, Method: PREINCUBATION): active; positive
mutagenic call (Test System: AMES SALMONELLA TYPHIMURIUM, Strain/Indicator: TA100, Metabolic Activation: RAT, LIVER, S-9, PCB, Method: PREINCUBATION): inactive; negative
mutagenic call (Test System: AMES SALMONELLA TYPHIMURIUM, Strain/Indicator: TA1535, Metabolic Activation: HAMSTER, LIVER, S-9, AROCLOR 1254 (10 OR 30%), Method: PREINCUBATION): inactive; negative
mutagenic call (Test System: AMES SALMONELLA TYPHIMURIUM, Strain/Indicator: TA1535, Metabolic Activation: NONE, Method: PREINCUBATION): inactive; negative
mutagenic call (Test System: AMES SALMONELLA TYPHIMURIUM, Strain/Indicator: TA1535, Metabolic Activation: RAT, LIVER, S-9, AROCLOR 1254 (10 OR 30%), Method: PREINCUBATION): inactive; negative
mutagenic call (Test System: AMES SALMONELLA TYPHIMURIUM, Strain/Indicator: TA1535, Metabolic Activation: RAT, LIVER, S-9, KC 500, Method: PREINCUBATION): inactive; negative
mutagenic call (Test System: AMES SALMONELLA TYPHIMURIUM, Strain/Indicator: TA1537, Metabolic Activation: HAMSTER, LIVER, S-9, AROCLOR 1254 (10%), Method: PREINCUBATION): inactive; negative
mutagenic call (Test System: AMES SALMONELLA TYPHIMURIUM, Strain/Indicator: TA1537, Metabolic Activation: NONE, Method: PREINCUBATION): inactive; negative
mutagenic call (Test System: AMES SALMONELLA TYPHIMURIUM, Strain/Indicator: TA1537, Metabolic Activation: RAT, LIVER, S-9, AROCLOR 1254 (10%), Method: PREINCUBATION): inactive; negative
mutagenic call (Test System: AMES SALMONELLA TYPHIMURIUM, Strain/Indicator: TA1537, Metabolic Activation: RAT, LIVER, S-9, KC 500, Method: PREINCUBATION): inactive; negative
mutagenic call (Test System: AMES SALMONELLA TYPHIMURIUM, Strain/Indicator: TA1538, Metabolic Activation: HAMSTER, LIVER, S-9, AROCLOR 1254 (10 OR 30%), Method: PREINCUBATION): inactive; negative
mutagenic call (Test System: AMES SALMONELLA TYPHIMURIUM, Strain/Indicator: TA1538, Metabolic Activation: NONE, Method: PREINCUBATION): inactive; negative
mutagenic call (Test System: AMES SALMONELLA TYPHIMURIUM, Strain/Indicator: TA1538, Metabolic Activation: RAT, LIVER, S-9, AROCLOR 1254 (10 OR 30%), Method: PREINCUBATION): inactive; negative
mutagenic call (Test System: AMES SALMONELLA TYPHIMURIUM, Strain/Indicator: TA1538, Metabolic Activation: RAT, LIVER, S-9, KC 500, Method: PREINCUBATION): inactive; negative
mutagenic call (Test System: Ames Salmonella typhimurium, Strain/Indicator: TA98, Metabolic Activation: None, Method: Preincubation): inactive; negative
mutagenic call (Test System: Ames Salmonella typhimurium, Strain/Indicator: TA98, Metabolic Activation: Rat, Liver, S9, Sodium phenobarbital and 5,6-benzoflavone (10%), Method: Preincubation): inactive; negative
mutagenic call (Test System: Ames Salmonella typhimurium, Strain/Indicator: TA100, Metabolic Activation: None, Method: Preincubation): inactive; negative
mutagenic call (Test System: Ames Salmonella typhimurium, Strain/Indicator: TA100, Metabolic Activation: Rat, Liver, S9, Sodium phenobarbital and 5,6-benzoflavone (10%), Method: Preincubation): inactive; negative
mutagenic call (Test System: Ames Salmonella typhimurium, Strain/Indicator: TA1535, Metabolic Activation: None, Method: Preincubation): inactive; negative
mutagenic call (Test System: Ames Salmonella typhimurium, Strain/Indicator: TA1535, Metabolic Activation: Rat, Liver, S9, Sodium phenobarbital and 5,6-benzoflavone (10%), Method: Preincubation): inactive; negative
mutagenic call (Test System: Ames Salmonella typhimurium, Strain/Indicator: TA1537, Metabolic Activation: None, Method: Preincubation): inactive; negative
mutagenic call (Test System: Ames Salmonella typhimurium, Strain/Indicator: TA1537, Metabolic Activation: Rat, Liver, S9, Sodium phenobarbital and 5,6-benzoflavone (10%), Method: Preincubation): inactive; negative
mutagenic call (Test System: E. COLI, Strain/Indicator: WP2 UVRA, Metabolic Activation: NONE, Method: PREINCUBATION): inactive; negative
mutagenic call (Test System: E. COLI, Strain/Indicator: WP2 UVRA, Metabolic Activation: RAT, LIVER, S-9, KC 500, Method: PREINCUBATION): inactive; negative
mutagenic call (Test System: E. coli, Strain/Indicator: WP2uvrA/pKM101, Metabolic Activation: None, Method: Preincubation): inactive; negative
mutagenic call (Test System: E. coli, Strain/Indicator: WP2uvrA/pKM101, Metabolic Activation: Rat, Liver, S9, Sodium phenobarbital and 5,6-benzoflavone (10%), Method: Preincubation): inactive; negative
